Data: ChEMBL document CHEMBL1141641, “SAR studies of capsazepinoid bronchodilators. Part 1: The importance of the catechol moiety and aspects of the B-ring structure” (Bioorg Med Chem, 2008)

Species on record: Homo sapiens
Experiment: Bronchodilation activity against leukotriene D4-induced constriction in human lung small airways assessed as remaining contraction at 10 uM after 1.5 hrs relative to control
Assay type: functional

Row | SMILES | Remaining contraction
1 | Oc1cc2c(cc1O)CN(C(=S)NCCc1ccc(Cl)cc1)CCC2 | 55%
2 | Oc1cc2c(cc1O)CN(C(=S)NCCc1ccc(Cl)cc1)CC2 | 36%
3 | Oc1ccc2c(c1)CN(C(=S)NCCc1ccc(Cl)cc1)CCC2 | 40%
4 | Oc1cc2c(cc1O)CCN(C(=S)NCCc1ccc(Cl)cc1)CC2 | 54%
5 | Oc1ccc(CNC(=S)NCCc2ccc(Cl)cc2)cc1O | 69%
6 | Oc1cccc2c1CN(C(=S)NCCc1ccc(Cl)cc1)CC2 | 73%
7 | Oc1cccc2c1CN(C(=S)NCCc1ccc(Cl)cc1)C2 | 82%
8 | Oc1cc2c(cc1O)CN(C(=S)NCCc1ccc(Cl)cc1)C2 | 56%
9 | Oc1cc2c(cc1O)C(Cc1ccccc1)N(C(=S)NCCc1ccc(Cl)cc1)CC2 (centres undefined) | 79%
10 | CC1Cc2cc(O)c(O)cc2CN1C(=S)NCCc1ccc(Cl)cc1 (centres undefined) | 70%
11 | CC1c2cc(O)c(O)cc2CCN1C(=S)NCCc1ccc(Cl)cc1 (centres undefined) | 58%
12 | Oc1ccc2c(c1)CN(C(=S)NCCc1ccc(Cl)cc1)C2 | 41%
13 | Oc1ccc2c(c1O)CCN(C(=S)NCCc1ccc(Cl)cc1)C2 | 63%
14 | Oc1ccc2c(c1)CN(C(=S)NCCc1ccc(Cl)cc1)CC2 | 75%
15 | Oc1cccc2c1CCN(C(=S)NCCc1ccc(Cl)cc1)C2 | 48%
16 | Oc1ccc(CCNC(=S)NCCc2ccc(Cl)cc2)cc1O | 72%
17 | Oc1ccc2c(c1)CCCN(C(=S)NCCc1ccc(Cl)cc1)C2 | 53%
18 | CN(Cc1ccc(O)c(O)c1)C(=S)NCCc1ccc(Cl)cc1 | 69%
19 | Oc1ccc2c(c1)CCN(C(=S)NCCc1ccc(Cl)cc1)C2 | 52%
